In US8247211B2, “Glycopeptide antibiotics” (American Cyanamid Company, priority 2001, dated 2012):
≈ marks a conversion by molar mass, not a printed value.

Tests used:
Test in all cases: In vitro antibacterial evaluation: minimum inhibitory concentration (MIC), broth dilution method
Type in all cases: cell-based
Enterococcus sp. = conditions: 18 hours at 35° C.
In short: (§1)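 Test strains, among them recent clinical isolates carrying methicillin, penicillin and/or vancomycin resistance, were inoculated at 5×10^5 CFU/mL. A broth dilution series spanning 64-0.06 μg/mL in Muller-Hinton II […] (NCCLS M7-A2) defined the MIC as the lowest growth-inhibiting concentration.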

Escherichia coli = conditions: 18 hours at 35° C.
In short: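 First, organisms are seeded at 5×10^5 CFU/mL into Muller-Hinton II […]. Next, antibiotic is applied across 64-0.06 μg/mL by broth dilution (NCCLS M7-A2). Finally, the lowest inhibitory concentration is recorded as MIC.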

Staphylococcus sp. = test system: Staphylococcus sp.
In short: as §1

Streptococcus sp. = conditions: 18 hours at 35° C.
In short: as §1

[1] = broth dilution, inoculum 5×10^5 CFU/mL

MIC Enterococcus avium (GC 4558) (Enterococcus sp.; Enterococcus avium (GC 4558)): 0.5 µg/mL (≈ 0.353 µM) | MIC Enterococcus faecalis (ATCC 29212) (Enterococcus sp.; Enterococcus faecalis (ATCC 29212)): 0.5 µg/mL (≈ 0.353 µM) | MIC Enterococcus faecalis (GC 2242) (Enterococcus sp.; Enterococcus faecalis (GC 2242)): 0.5 µg/mL (≈ 0.353 µM) | MIC Enterococcus faecalis (GC 2691) (Enterococcus sp.; Enterococcus faecalis (GC 2691)): 0.5 µg/mL (≈ 0.353 µM) | MIC Enterococcus faecalis (GC 3059) (Enterococcus sp.; Enterococcus faecalis (GC 3059)): 0.5 µg/mL (≈ 0.353 µM) | MIC Enterococcus faecalis (GC 4552) (Enterococcus sp.; Enterococcus faecalis (GC 4552)): 0.5 µg/mL (≈ 0.353 µM) | MIC Enterococcus faecalis (GC 4553) (Enterococcus sp.; Enterococcus faecalis (GC 4553)): 0.5 µg/mL (≈ 0.353 µM) | MIC Enterococcus faecalis (GC 4554) (Enterococcus sp.; Enterococcus faecalis (GC 4554)): 0.5 µg/mL (≈ 0.353 µM) | MIC Enterococcus faecalis (GC 6189) (Enterococcus sp.; Enterococcus faecalis (GC 6189)): 0.5 µg/mL (≈ 0.353 µM) | MIC Enterococcus faecium (GC 2243) (Enterococcus sp.; Enterococcus faecium (GC 2243)): 0.5 µg/mL (≈ 0.353 µM) | MIC Enterococcus faecium (GC 4556) (Enterococcus sp.; Enterococcus faecium (GC 4556)): 0.5 µg/mL (≈ 0.353 µM) | MIC Enterococcus faecium (GC 4557) (Enterococcus sp.; Enterococcus faecium (GC 4557)): 0.5 µg/mL (≈ 0.353 µM) | MIC Enterococcus avium (GC 4558) (Enterococcus sp.; [1]): 0.5 µg/mL (≈ 0.353 µM) | MIC Enterococcus faecalis (ATCC 29212) (Enterococcus sp.; [1]): 0.5 µg/mL (≈ 0.353 µM) | MIC Enterococcus faecalis (GC 2242) (Enterococcus sp.; [1]): 0.5 µg/mL (≈ 0.353 µM) | MIC Enterococcus faecalis (GC 2691) (Enterococcus sp.; [1]): 0.5 µg/mL (≈ 0.353 µM) | MIC Enterococcus faecalis (GC 3059) (Enterococcus sp.; [1]): 0.5 µg/mL (≈ 0.353 µM) | MIC Enterococcus faecalis (GC 4552) (Enterococcus sp.; [1]): 0.5 µg/mL (≈ 0.353 µM) | MIC Enterococcus faecalis (GC 4553) (Enterococcus sp.; [1]): 0.5 µg/mL (≈ 0.353 µM) | MIC Enterococcus faecalis (GC 4554) (Enterococcus sp.; [1]): 0.5 µg/mL (≈ 0.353 µM) | MIC Enterococcus faecalis (GC 6189) (Enterococcus sp.; [1]): 0.5 µg/mL (≈ 0.353 µM) | MIC Enterococcus faecium (GC 2243) (Enterococcus sp.; [1]): 0.5 µg/mL (≈ 0.353 µM) | MIC Enterococcus faecium (GC 4556) (Enterococcus sp.; [1]): 0.5 µg/mL (≈ 0.353 µM) | MIC Enterococcus faecium (GC 4557) (Enterococcus sp.; [1]): 0.5 µg/mL (≈ 0.353 µM) | MIC Escherichia coli (ATCC 25922) (Escherichia coli; Escherichia coli (ATCC 25922)): >0.5 µg/mL | MIC Escherichia coli (GC 4559) (Escherichia coli; Escherichia coli (GC 4559)): >0.5 µg/mL | MIC Escherichia coli (GC 4560) (Escherichia coli; Escherichia coli (GC 4560)): 0.5 µg/mL (≈ 0.353 µM) | MIC Staphylococcus aureus (ATCC 29213) (Staphylococcus sp.; strain ATCC 29213): 0.5 µg/mL (≈ 0.353 µM) | MIC Staphylococcus aureus (GC 1131) (Staphylococcus sp.; strain GC 1131): 0.5 µg/mL (≈ 0.353 µM) | MIC Staphylococcus aureus (GC 3051) (Staphylococcus sp.; strain GC 3051): 0.5 µg/mL (≈ 0.353 µM) | MIC Staphylococcus aureus (GC 3053) (Staphylococcus sp.; strain GC 3053): 0.5 µg/mL (≈ 0.353 µM) | MIC Staphylococcus aureus (GC 4541) (Staphylococcus sp.; strain GC 4541): 0.5 µg/mL (≈ 0.353 µM) | MIC Staphylococcus aureus (GC 4542) (Staphylococcus sp.; strain GC 4542): 0.5 µg/mL (≈ 0.353 µM) | MIC Staphylococcus aureus-SMITH (GC 4543) (Staphylococcus sp.; strain GC 4543): 0.5 µg/mL (≈ 0.353 µM) | MIC Staphylococcus aureus (GC 4544) (Staphylococcus sp.; strain GC 4544): 0.5 µg/mL (≈ 0.353 µM) | MIC Staphylococcus aureus (GC 4545) (Staphylococcus sp.; strain GC 4545): 0.5 µg/mL (≈ 0.353 µM) | MIC Coagulase Negative Staphylococcus (GC 4547) (Staphylococcus sp.; strain GC 4547): 4 µg/mL (≈ 2.82 µM) | MIC Coagulase Negative Staphylococcus (GC 4548) (Staphylococcus sp.; strain GC 4548): 2 µg/mL (≈ 1.41 µM) | MIC Coagulase Negative Staphylococcus (GC 4549) (Staphylococcus sp.; strain GC 4549): 1 µg/mL (≈ 0.705 µM) | MIC Coagulase Negative Staphylococcus (GC 4551) (Staphylococcus sp.; strain GC 4551): 4 µg/mL (≈ 2.82 µM) | MIC Coagulase Negative Staphylococcus (GC 6257) (Staphylococcus sp.; strain GC 6257): 2 µg/mL (≈ 1.41 µM) | MIC Streptococcus agalactiae (GC 4564) (Streptococcus sp.; Streptococcus agalactiae (GC 4564)): 0.5 µg/mL (≈ 0.353 µM) | MIC Streptococcus pneumoniae (ATCC 6301) (Streptococcus sp.; Streptococcus pneumoniae (ATCC 6301)): 0.12 µg/mL (≈ 0.0846 µM) | MIC Streptococcus pneumoniae (GC 1894) (Streptococcus sp.; Streptococcus pneumoniae (GC 1894)): 0.12 µg/mL (≈ 0.0846 µM) | MIC Streptococcus pneumoniae (GC 4565) (Streptococcus sp.; Streptococcus pneumoniae (GC 4565)): 0.12 µg/mL (≈ 0.0846 µM) | MIC Streptococcus pyogenes (GC 4563) (Streptococcus sp.; Streptococcus pyogenes (GC 4563)): 0.12 µg/mL (≈ 0.0846 µM) | MIC Streptococcus agalactiae (GC 4564) (Streptococcus sp.; [1]): 0.5 µg/mL (≈ 0.353 µM) | MIC Streptococcus pneumoniae (ATCC 6301) (Streptococcus sp.; [1]): 0.12 µg/mL (≈ 0.0846 µM) | MIC Streptococcus pneumoniae (GC 1894) (Streptococcus sp.; [1]): 0.12 µg/mL (≈ 0.0846 µM) | MIC Streptococcus pneumoniae (GC 4565) (Streptococcus sp.; [1]): 0.12 µg/mL (≈ 0.0846 µM) | MIC Streptococcus pyogenes (GC 4563) (Streptococcus sp.; [1]): 0.12 µg/mL (≈ 0.0846 µM)
SMILES: CC(c1ccc(Cl)cc1)C1NC(=O)CNC(=O)C(CO)NC(=O)C(C(O)C2CNC(=N)N2C2OC(CO)C(O)C(O)C2O)NC(=O)C(C(O)C2CNC(=N)N2)NC(=O)C(Cc2ccc(OC3OC(CO)C(OC4OC5COC(c6ccccc6)OC5C(O)C4O)C(O)C3O)cc2)NC1=O (stereo not drawn) [Example 195, Cyclo[glycyl-4-chloro-β-methylphenylalanyl-O-[4-O-(4,6-O-benzylidenehexopyranosyl)-hexopyranosyl]tyrosyl-3-(2-iminoimidazolidin-4-yl)seryl-3-(3-hexopyranosyl-2-iminoimidazolidin-4-yl)serylseryl]]
MIC Staphylococcus haemolyticus (GC 4546) (Staphylococcus sp.; strain GC 4546): 2 µg/mL (≈ 1.41 µM)
